10 compounds from ChEMBL document CHEMBL4346683 (Eur J Med Chem, 2019) can be followed below.

Structures are written as SMILES. pIC50: −log10 of the molar value. Converted amounts (≈) assume the structure as drawn. The source made the active and inactive calls. No cut-off for these calls is given here. Where only a bound is given, the exact number is not on record here.

The target in series [1] is T1, 3-oxoacyl-[acyl-carrier-protein] synthase 3 (Escherichia coli, UniProt C3TDZ2).
T1 sequence (C3TDZ2 whole entry): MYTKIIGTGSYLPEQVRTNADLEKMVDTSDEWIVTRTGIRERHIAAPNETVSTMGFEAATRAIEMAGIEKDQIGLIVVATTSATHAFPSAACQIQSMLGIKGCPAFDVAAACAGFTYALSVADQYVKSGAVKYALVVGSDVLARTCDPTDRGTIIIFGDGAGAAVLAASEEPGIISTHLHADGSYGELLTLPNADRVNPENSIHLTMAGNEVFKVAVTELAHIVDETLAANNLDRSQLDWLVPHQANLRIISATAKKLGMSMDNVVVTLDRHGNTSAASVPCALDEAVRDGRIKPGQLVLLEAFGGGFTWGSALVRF
As to the kind of experiment: Inhibition of Escherichia coli FabH in presence of radiolabelled substrates and acetyl-coA by enzyme coupled FabD/FabH assay system.

Series [2] deals with Staphylococcus aureus. The experiment in a line: Antibacterial activity against Staphylococcus aureus ATCC 25923 assessed as inhibition of bacterial growth incubated for 24 hrs by TTC double broth dilution method. Format: functional. The conditions noted are these: ATCC 25923, 24 h.
The subject of series [3] is Xanthomonas oryzae pv. oryzae. As to the kind of experiment: Antibacterial activity against wild type Xanthomonas oryzae pv. oryzae KACC10331 expressing FabH assessed as reduction in bacterial growth. Format: functional.
The nature of series [4]: Cytotoxicity against human 293T cells assessed as reduction in cell viability incubated for 24 hrs by MTT assay. To be noted: HEK-293T cells. Format: cell-based.
Series [5] concerns Xanthomonas oryzae pv. oryzae. The experiment in a line: Antibacterial activity against wild type Xanthomonas oryzae pv. oryzae KACC10331 expressing FabH assessed as reduction in bacterial growth at 5 ug/ml. The class given is functional, organism-based.
A further series relates to Escherichia coli. The experiment in a line: Antibacterial activity against Escherichia coli ATCC 25922 assessed as inhibition of bacterial growth incubated for 24 hrs by TTC double broth dilution method. Format: functional. To be noted: ATCC 25922, 24 h.
Series [6] is described as follows: Induction of hemolysis in human erythrocytes assessed as hemoglobin release incubated for 3 hrs by spectrophotometric analysis. Format: cell-based. The conditions noted are these: erythrocyte.
A further series concerns Pseudomonas aeruginosa. The experiment in a line: Antibacterial activity against Pseudomonas aeruginosa ATCC 27853 assessed as inhibition of bacterial growth incubated for 24 hrs by TTC double broth dilution method. The class given is functional. The conditions noted are these: ATCC 27853, 24 h.
The next series concerns Bacillus subtilis. The experiment in a line: Antibacterial activity against Bacillus subtilis ATCC 530 assessed as inhibition of bacterial growth incubated for 24 hrs by TTC double broth dilution method. The class given is functional. To be noted: ATCC 530, 24 h.
For series [7], the system named is Staphylococcus aureus. The experiment in a line: Antibacterial activity against Staphylococcus aureus. The class given is functional.
The subject of the next series is Enterococcus faecium. The experiment in a line: Antibacterial activity against Enterococcus faecium. Format: functional.
The subject of another series is Streptococcus pneumoniae. The experiment in a line: Antibacterial activity against Streptococcus pneumoniae. Format: functional.
Series [8] in a line: Inhibition of Enterococcus faecalis FabH.
A short description of series [9]: Inhibition of Streptococcus pyogenes FabH.

For `O=C(c1cccnc1)n1c(-c2cn(-c3ccccc3)nc2-c2ccc(F)cc2)nc2ccccc21`, the negative-log IC50 (pIC50) in [1] was 5.91. The MIC in the series with Staphylococcus aureus [2] was 0.98 µg/mL (≈ 2.13 µM); in series [3] it was 0.49 µg/mL (≈ 1.07 µM); in the series on Escherichia coli, 0.98 µg/mL (≈ 2.13 µM); in the series on Pseudomonas aeruginosa it was 0.49 µg/mL (≈ 1.07 µM); with Bacillus subtilis it was 0.98 µg/mL (≈ 2.13 µM). Besides, the CC50 at 24 h in series [4] is 216 µM. Moreover, in series [5], the inhibition result was “Active”. For the same compound, the LC30 in [6] was > 10 mg/mL.

For the compound `Cc1ccc(C(=O)n2c(-c3cn(-c4ccccc4)nc3-c3ccc(F)cc3)nc3ccccc32)cn1`, the pIC50 in [1] was 5.40. Also, the minimum inhibitory concentration (MIC) in the series on Staphylococcus aureus [2] was 62.5 µg/mL (≈ 132 µM); in [3] it was 15.6 µg/mL (≈ 33 µM); with Escherichia coli it was 1.95 µg/mL (≈ 4.12 µM); with Pseudomonas aeruginosa it was 62.5 µg/mL (≈ 132 µM); in the series on Bacillus subtilis, 0.98 µg/mL (≈ 2.07 µM). In [4], the half-maximal cytotoxic concentration (CC50) at 24 h is 137 µM. In addition, in series [6], the LC30 was > 10 mg/mL.

In the case of `C[C@]12C[C@@]34C=CC(=O)[C@@](C)(CCC(=O)Nc5c(O)ccc(C(=O)O)c5O)[C@@H]3[C@H](C[C@@H]1C4)O2`, the MIC in the series on Staphylococcus aureus [7], with Enterococcus faecium and against Streptococcus pneumoniae was 0.5 to 1 µg/mL (≈ 1.13 to 2.27 µM) each time.

Turning to `Cc1ccc(C(=O)n2c(-c3cn(-c4ccccc4)nc3-c3ccc(C(F)(F)F)cc3)nc3ccccc32)cc1`, in series [1], the pIC50 is 4.50. In addition, the minimal inhibitory concentration (MIC) was > 62.5 µg/mL in the series with Staphylococcus aureus [2], 62.5 µg/mL (≈ 120 µM) in the series on Escherichia coli, > 62.5 µg/mL in the series with Pseudomonas aeruginosa and 3.9 µg/mL (≈ 7.46 µM) in the series with Bacillus subtilis. The half-maximal cytotoxic concentration (CC50) at 24 h in series [4] worked out at 169 µM. The LC30 in series [6] is > 10 mg/mL.

Take `Cc1ccccc1C(=O)n1c(-c2cn(-c3ccccc3)nc2-c2ccc(F)cc2)nc2ccccc21`: the negative logarithm of the IC50 (pIC50) in [1] was 4.43. For the same compound, the minimum inhibitory concentration (MIC) is > 62.5 µg/mL with Staphylococcus aureus [2], > 62.5 µg/mL in the series on Escherichia coli, > 62.5 µg/mL with Pseudomonas aeruginosa and 62.5 µg/mL (≈ 132 µM) with Bacillus subtilis. Further, the CC50 at 24 h in [4] was found to be 189 µM. For the same compound, in [6], the LC30 was > 10 mg/mL.

As for `Cc1ccc(-c2nn(-c3ccccc3)cc2-c2nc3ccccc3n2C(=O)c2ccc(C)nc2)cc1`, in series [1], the pIC50 was 4.77. For the same compound, the MIC in the series on Staphylococcus aureus [2] was 62.5 µg/mL (≈ 133 µM); in series [3], 15.6 µg/mL (≈ 33.3 µM); in the series with Escherichia coli, 62.5 µg/mL (≈ 133 µM); with Pseudomonas aeruginosa it was 62.5 µg/mL (≈ 133 µM); in the series with Bacillus subtilis it was 0.98 µg/mL (≈ 2.09 µM). In series [4], the CC50 at 24 h was 145 µM. In series [6], the LC30 is > 10 mg/mL.

`O=C(c1ccncc1)n1c(-c2cn(-c3ccccc3)nc2-c2ccc(C(F)(F)F)cc2)nc2ccccc21`: the pIC50 in [1] was 4.49. The minimal inhibitory concentration (MIC) in the series with Staphylococcus aureus [2] was 62.5 µg/mL (≈ 123 µM); in the series with Escherichia coli it was > 62.5 µg/mL; in the series on Pseudomonas aeruginosa, 62.5 µg/mL (≈ 123 µM); with Bacillus subtilis, 7.8 µg/mL (≈ 15.3 µM). The CC50 at 24 h in [4] is 135 µM. Further, in series [6], the LC30 was > 10 mg/mL.

As to `O=C(Nc1cccc(O)c1C(=O)O)c1ccc(-c2ccccc2)c(Oc2ccccc2)c1`, the pIC50 in [8] and in [9] was 8.40 each time.

As for `O=C(c1cccnc1)n1c(-c2cn(-c3ccccc3)nc2-c2ccc(C(F)(F)F)cc2)nc2ccccc21`, the pIC50 in [1] was 4.82. Moreover, the MIC worked out at 62.5 µg/mL (≈ 123 µM) with Staphylococcus aureus [2]; 15.6 µg/mL (≈ 30.7 µM) in series [3]; 62.5 µg/mL (≈ 123 µM) in the series on Escherichia coli; 62.5 µg/mL (≈ 123 µM) in the series on Pseudomonas aeruginosa; 1.95 µg/mL (≈ 3.83 µM) with Bacillus subtilis. In [4], the 50% cytotoxic concentration (CC50) at 24 h was found to be 158 µM. Also, the LC30 in [6] is > 10 mg/mL.

Take `Cc1cncc(C(=O)n2c(-c3cn(-c4ccccc4)nc3-c3ccc(C(F)(F)F)cc3)nc3ccccc32)c1`: in series [1], the pIC50 is 4.64. Besides, the MIC in the series on Staphylococcus aureus [2] amounted to 62.5 µg/mL (≈ 119 µM); in series [3] it was 7.82 µg/mL (≈ 14.9 µM); in the series on Escherichia coli it was 62.5 µg/mL (≈ 119 µM); in the series on Pseudomonas aeruginosa it was 62.5 µg/mL (≈ 119 µM); with Bacillus subtilis it was 0.98 µg/mL (≈ 1.87 µM). Also, the 50% cytotoxic concentration (CC50) at 24 h in series [4] turned out to be 123 µM. Also, the inhibition result in [5] is “Active”. Further, the LC30 in [6] was > 10 mg/mL.
